# Assay results taken from US9932339B2, “Helquats with heteroaromatic substituents, preparation thereof, and use thereof as G-quadruplex stabilizers” (USTAV ORGANICKE CHEMIE A BIOCHEMIE AV CR, V.V.I., priority 2014, dated 2018).
# Tests used:
# [1] = tested on: G-quadruplex in promoter region of the c-myc gene (NHE III1 segment); assay: Dual luciferase analysis with plasmid pGL4.10-myc (luc2) in HGC-27 cells; assay type: cell-based, human; conditions: Homo sapiens; for inhibition at 50 µM: HGC-27, text summary of tab. 5 (50 μmol·l^−1), read-out: inhibition of expression of firefly luciferase as compared to control; for activity at 50 µM: helquat 50 μmol · l^−1, HGC-27, firefly normalized to Renilla, 24 hours after transfection, read-out: luciferase expression relative to control (control = 100%)
# Summary of the method: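 HGC-27 cells were co-transfected 1:1 with pGL4.10-myc (luc2), whose firefly luciferase is driven by an 860 bp c-myc regulatory region containing the G-quadruplex-forming NHE III1 segment, and pRL-TK Renilla control, using X-tremeGENE HP DNA in OptiMEM. Compounds were added two hours post-transfection; luminescence read 24 hours after transfection was Renilla-normalized and expressed relative to control.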
# c-myc protein = assay: Immunodetection of protein c-myc in HGC-27 cell lysates (Western blot); assay type: cell-based, human; conditions: 50 μmol · l^−1, 24 hour incubation, normalized to β-actin
# Method: Determination of changes in c-myc protein expression (transcription factor) in cell lysates prepared from tumor cell line HGC-27 after treatment with test helquats (Tab. 7) was carried out by immunodetection after separation of proteins according to their size by gel electrophoresis (SDS-PAGE) and blotting.
# To determine the influence helquats on expression of c-myc protein, the cells were cultured under standard conditions and in the exponential growth phase were seeded into flasks at a density of 25,000 cells/cm^2. The next day selected helquats were added at a concentration of 50 μmol·l^−1. After 24 hour incubation, the cell pellets were obtained and, after addition of RIPA buffer with protease inhibitors (PrIC) and phosphatases (PhIC) (for composition see Tab. 8) cell lysates were prepared. 150 μl of RIPA buffer was used for 10^7 cells. Protein concentrations in the lysates were measured by BCA method. Separation of proteins in the lysates was carried out on a 12% denaturing polyacrylamide gel. The separated proteins were transferred to PVDF membrane by Western blotting.
# Incubation with primary mouse monoclonal antibody against the protein c-myc (dilution 1:1000 in “SignalBoost” reagent) was carried out overnight at 4° C., and then with the primary mouse anti-β-actin (1:5000 dilution in 5% milk in TBS-T buffer) at room temperature for 2 hours. Subsequently, the secondary horse monoclonal antibody conjugated to horseradish peroxidase (diluted 1:2000 in 5% milk in TBS-T buffer) binding to mouse IgG antibody was applied. C-myc proteins and β-actin bound to the membrane were visualized using detection kit (SuperSignal® West Femto Maximum Sensitivity Substrate, Cat. No. 34095, Thermo Fisher Scientific, Inc., USA) in the chemiluminescence detection system ImageQuant LAS 4000 Mini (Cat. No. 28-9558-13, GE Healthcare Life Sciences, USA). The amount of protein was quantified by densitometry in Quantity One software. The amount of c-myc in the samples was normalized to β-actin, and subsequently related to a control sample.
Compound,inhibition at 50 µM [1],activity at 50 µM [1],c-myc protein expression relative to control (control = 100%) (c-myc protein)
"CCOC(=O)c1cc(/C=C/c2cc[n+]3c(c2)-c2c(c(C)c(C)c4c2-c2c5ccccc5cc[n+]2CC4)CC3)c[nH]1.O=S(=O)([O-])C(F)(F)F.O=S(=O)([O-])C(F)(F)F [MJA-C8-28, (E)-13-(2-(5-(ethoxycarbonyl)-1H-pyrrol-3-yl)vinyl)-6,7-dimethyl-4,5,8,9-tetrahydroisoquinolino[1,2-a]pyrido[1,2-k][2,9]phenanthroline-3,10-diium trifluoromethanesulfonate]",> 20%,72%,23%
"Cc1c(C)c2c(c3c1CC[n+]1ccc(/C=C/c4ccsc4)cc1-3)-c1cccc(/C=C/c3ccsc3)[n+]1CC2 (racemic) [MJB-C5-9, (rac)-8,9-dimethyl-2,13-bis((E)-2-(thiophen-3-yl)vinyl)-6,7,10,11-tetrahydrodipyrido[2,1-a:1′,2′-k][2,9]phenanthroline-5,12-diium trifluoromethanesulfonate]",> 20%,75%,30%
"Cc1c(C)c2c(c3c1CC[n+]1ccc4ccccc4c1-3)-c1cccc(/C=C/c3cccc4c3oc3ccccc34)[n+]1CC2.O=S(=O)([O-])C(F)(F)F.O=S(=O)([O-])C(F)(F)F [VDJA-C13-8, (E)-11-(2-(dibenzo[b,d]furan-4-yl)vinyl)-6,7-dimethyl-4,5,8,9-tetrahydroisoquinolino[1,2-a]pyrido[1,2-k][2,9]phenanthroline-3,10-diium trifluoromethanesulfonate]",> 20%,76%,77%
"C(=C\c1cc2ccccc2[nH]1)/c1cc(/C=C/c2cc3ccccc3[nH]2)[n+]2c(c1)-c1c(ccc3c1-c1cccc[n+]1CC3)CC2.O=S(=O)([O-])C(F)(F)F.O=S(=O)([O-])C(F)(F)F [HTA-C10-10, 2,4-bis((E)-2-(1H-indol-2-yl)vinyl)-6,7,10,11-tetrahydrodipyrido[2,1-a:1′,2′-k][2,9]phenanthroline-5,12-diium trifluoromethanesulfonate]",,,75%
"CCCCCCc1ccc(/C=C/c2cc[n+]3c(c2)-c2c(c(C)c(C)c4c2-c2c5ccccc5cc[n+]2CC4)CC3)s1.O=S(=O)([O-])C(F)(F)F.O=S(=O)([O-])C(F)(F)F [MJA-C11-25, (E)-13-(2-(5-hexylthiophen-2-yl)vinyl)-6,7-dimethyl-4,5,8,9-tetrahydroisoquinolino[1,2-a]pyrido[1,2-k][2,9]phenanthroline-3,10-diium trifluoromethanesulfonate]",,,66%
"Cc1nc[nH]c1/C=C/c1cc[n+]2c(c1)-c1c(c(C)c(C)c3c1-c1cccc(/C=C/c4[nH]cnc4C)[n+]1CC3)CC2.O=S(=O)([O-])C(F)(F)F.O=S(=O)([O-])C(F)(F)F [MJB-C5-11, 8,9-dimethyl-2,13-bis((E)-2-(4-methyl-1H-imidazol-5-yl)vinyl)-6,7,10,11-tetrahydrodipyrido[2,1-a:1′,2′-k][2,9]phenanthroline-5,12-diium trifluoromethanesulfonate]",,,23%
"2,4,15,17-tetra((E)-(2-(1-methyl-1H-indol-2-yl)vinyl)-6,7,8,11,12,13-hexahydrodipyrido[1,2-a:1′,2′-a′]benzo[2,1-c:3,4-c′]bisazepindiium trifluoromethanesulfonate [PRC-C10-10]",,,71%
"Cc1nc[nH]c1/C=C/c1cc[n+]2c(c1)-c1c(ccc3c1-c1cc(/C=C/c4[nH]cnc4C)cc[n+]1CC3)CC2.O=S(=O)([O-])C(F)(F)F.O=S(=O)([O-])C(F)(F)F [PDA-C5-11, 2,15-bis((E)-2-(4-methyl-1H-imidazol-5-yl)vinyl)-6,7,10,11-tetrahydrodipyrido[2,1-a:1′,2′-k][2,9]phenanthroline-5,12-diium trifluoromethanesulfonate]",,,80%
"C(=C\c1cccc2c1oc1ccccc12)/c1cc[n+]2c(c1)-c1c(ccc3c1-c1cccc[n+]1CC3)CC2.O=S(=O)([O-])C(F)(F)F.O=S(=O)([O-])C(F)(F)F [LSA-C13-8, (E)-2-(2-(dibenzo[b,d]furan-4-yl)vinyl)-6,7,10,11-tetrahydrodipyrido[2,1-a:1′,2′-k][2,9]phenanthroline-5,12-diium trifluoromethanesulfonate]",> 40%,58%,15%
